Reference: ChEMBL document CHEMBL4665796 (2020)
Activity calls are given as the source filed them. The calls are words filed in the database; no cut-off is given here.

Legend:
[1] = target: Sodium channel protein type 5 subunit alpha (Homo sapiens, UniProt Q14524); assay: Inhibition of NaV1.5 (unknown origin) at 5 uM
Bacillus subtilis = assay: Antimicrobial activity against Bacillus subtilis at 1.5 ug after 18 hrs by paper disk-agar diffusion assay; type: functional, organism-based; conditions: dose 1.5 µg
Pseudomonas putida = assay: Antimicrobial activity against Pseudomonas putida at 1.5 ug after 18 hrs by paper disk-agar diffusion assay; type: functional, organism-based; conditions: dose 1.5 µg
Candida = assay: Antimicrobial activity against Candida sp. at 1.5 ug after 18 hrs by paper disk-agar diffusion assay; type: functional, organism-based; conditions: dose 1.5 µg

Sequence of Sodium channel protein type 5 subunit alpha (Q14524 whole entry, the tested form may be a part): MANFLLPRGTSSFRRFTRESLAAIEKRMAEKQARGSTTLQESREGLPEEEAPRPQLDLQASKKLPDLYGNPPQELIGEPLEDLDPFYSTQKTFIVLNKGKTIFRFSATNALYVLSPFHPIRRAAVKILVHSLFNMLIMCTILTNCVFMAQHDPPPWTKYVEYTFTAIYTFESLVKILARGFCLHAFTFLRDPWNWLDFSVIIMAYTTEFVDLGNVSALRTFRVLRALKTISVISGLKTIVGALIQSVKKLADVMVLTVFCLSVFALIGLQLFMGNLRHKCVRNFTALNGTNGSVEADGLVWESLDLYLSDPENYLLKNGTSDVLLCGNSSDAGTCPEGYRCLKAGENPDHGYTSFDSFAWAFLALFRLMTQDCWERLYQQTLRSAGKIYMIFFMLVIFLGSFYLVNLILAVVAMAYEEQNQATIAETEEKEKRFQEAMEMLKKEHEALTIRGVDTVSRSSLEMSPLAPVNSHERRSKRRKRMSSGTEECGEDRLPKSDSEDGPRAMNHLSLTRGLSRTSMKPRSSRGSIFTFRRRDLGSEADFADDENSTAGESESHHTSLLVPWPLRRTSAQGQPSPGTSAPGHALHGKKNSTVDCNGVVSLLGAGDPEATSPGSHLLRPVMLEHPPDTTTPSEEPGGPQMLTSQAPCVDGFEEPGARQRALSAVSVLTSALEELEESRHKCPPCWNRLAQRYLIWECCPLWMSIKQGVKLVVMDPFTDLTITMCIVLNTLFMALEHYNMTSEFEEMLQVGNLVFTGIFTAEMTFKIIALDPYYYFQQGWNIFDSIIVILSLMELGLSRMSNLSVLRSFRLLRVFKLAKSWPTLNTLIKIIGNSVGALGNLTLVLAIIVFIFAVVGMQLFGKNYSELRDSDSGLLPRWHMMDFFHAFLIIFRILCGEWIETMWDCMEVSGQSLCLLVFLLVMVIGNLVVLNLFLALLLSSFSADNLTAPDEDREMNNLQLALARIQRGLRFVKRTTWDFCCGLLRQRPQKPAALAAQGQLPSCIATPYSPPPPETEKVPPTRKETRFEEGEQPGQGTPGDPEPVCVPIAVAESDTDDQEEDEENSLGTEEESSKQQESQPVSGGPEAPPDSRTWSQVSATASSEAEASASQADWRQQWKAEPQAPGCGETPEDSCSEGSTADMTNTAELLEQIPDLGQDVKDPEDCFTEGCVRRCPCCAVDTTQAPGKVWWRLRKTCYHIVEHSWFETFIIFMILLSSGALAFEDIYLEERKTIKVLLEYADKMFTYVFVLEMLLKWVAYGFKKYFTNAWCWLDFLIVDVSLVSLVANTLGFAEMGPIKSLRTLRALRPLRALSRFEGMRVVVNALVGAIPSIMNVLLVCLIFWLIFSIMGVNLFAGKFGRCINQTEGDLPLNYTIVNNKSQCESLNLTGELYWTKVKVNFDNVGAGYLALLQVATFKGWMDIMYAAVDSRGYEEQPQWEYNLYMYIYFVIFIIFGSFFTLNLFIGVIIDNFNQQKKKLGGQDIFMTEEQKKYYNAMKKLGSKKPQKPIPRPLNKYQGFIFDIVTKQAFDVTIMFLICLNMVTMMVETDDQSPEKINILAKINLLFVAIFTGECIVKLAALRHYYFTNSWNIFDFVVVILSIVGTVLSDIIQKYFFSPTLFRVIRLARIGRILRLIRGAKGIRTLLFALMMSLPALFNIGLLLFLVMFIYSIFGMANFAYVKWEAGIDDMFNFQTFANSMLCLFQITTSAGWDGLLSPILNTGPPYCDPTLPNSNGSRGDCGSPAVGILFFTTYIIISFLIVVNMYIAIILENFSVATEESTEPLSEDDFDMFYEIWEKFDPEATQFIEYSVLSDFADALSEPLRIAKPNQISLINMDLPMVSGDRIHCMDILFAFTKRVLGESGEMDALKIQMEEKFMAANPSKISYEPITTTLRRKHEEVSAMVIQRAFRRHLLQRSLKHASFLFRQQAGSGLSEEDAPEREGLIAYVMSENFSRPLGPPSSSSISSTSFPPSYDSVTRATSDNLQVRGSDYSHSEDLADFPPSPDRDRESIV

| Structure (SMILES) | inhibition (INH) [1] | Activity (Bacillus subtilis) | Activity (Pseudomonas putida) | Activity (Candida) |
| --- | --- | --- | --- | --- |
| C[C@]12NC(=N)NC[C@H]1C[C@]1(C)O[C@@]2(O)C[C@@H]1O | Not Active |  |  |  |
| C[C@]12NC(=N)NC=C1C[C@]1(C)O[C@@]2(O)C[C@@H]1O | Not Active | inactive | inactive | inactive |
| C[C@@]12NC(=N)N[C@H]3O[C@H]4C[C@]1(O)O[C@@]4(C)C[C@H]32 | Not Active |  |  |  |
| C[C@]1(O)C[C@@H]2CNC(=N)N[C@]2(C)C(=O)C[C@@H]1O | Not Active |  |  |  |
| C[C@]12NC(=N)NC[C@H]1C[C@]1(C)O[C@@]2(O)CC1=O | Not Active |  |  |  |
| C[C@]12NC(=N)NC=C1C[C@]1(C)O[C@@]2(O)CC1=O | Not Active | inactive | inactive | inactive |
